Measurements from US20230340491A1, “COMPOSITIONS AND METHODS FOR TREATING METABOLIC AND CARDIOVASCULAR DISEASES” (UNIVERSITY OF ROCHESTER, priority 2020, published 2023).

Columns and labels:
[1] = test system: HFD-fed C57BL/6J mice; assay: HFD-induced obesity and NAFLD in C57BL/6J mice treated with CRT0066101; format: in vivo, mouse; conditions: 10 mg/kg/day oral
Source text: The mouse fat and liver tissues from the experimental mice were harvested after oral administration one and a half month.

[2] = test system: C57BL/6NJ mice fed NASH diet; assay: NASH diet-induced NASH in C57BL/6NJ mice treated with PKD3 inhibitor; format: in vivo, mouse
Source text: The NASH diet D09100310, purchased from Research Diet, is a rodent diet with 40 kcal % Fat (mostly palm oil), 20 kcal % fructose and 2% cholesterol.
Furtherly, to investigate the therapeutic potential of PKD3 inhibitor against NASH, we devised an experimental approach to model advanced NAFLD. […] To explore potential mechanisms by which PKD3 inhibitor treatment protect against diet-induced NASH. We applied RNA sequencing of livers collected at endpoint.

[3] = test system: WD-fed ApoE-/- mice
Description: To further test whether PKD3 inhibitor prevents NAFLD development, we first studied ApoE^−/− mice with Western diet (WD) induced HS, after 8 weeks on WD, we then treat the mice with PKD3 inhibitor by oral administration (low dose; 100 ug/10 g per day) on continue fed WD condition.

[4] = 100 ug/10 g per day oral, 6 weeks
[5] = 100 ug/10 g per day oral, vs vehicle

With `CC[C@@H](N)CNc1ccnc(-c2cc(-c3cnn(C)c3)ccc2O)n1` [CRT0066101] the “body weight at end-point (FIG. 2C-2D)” value ([1]; one and a half month, vs vehicle) was “dramatically decreased”, the “liver weight (FIG. 2F)” value ([1]; vs vehicle) was “significantly reduced” and the “running distance of physical exercise on treadmill (FIG. 2J)” value ([1]; vs vehicle) was “increased”. The “serum alanine-aminotransferase (ALT) (FIG. 2I)” value ([1]; vs vehicle) was “decreased”, the “serum aspartate aminotransferase (AST) (FIG. 2H)” value ([1]; vs vehicle) was “decreased” and the “size of adipocytes (FIG. 2K)” value ([1]; vs vehicle) was “considerably diminished”. For the same compound, the “weight of fat tissue (FIG. 2L-2N)” value ([1]; vs vehicle) was “considerably diminished”, the “liver histology (FIG. 2G)” value ([1]; vehicle mice had ballooning, hepatocyte death, severe fibrosis, fatty liver) was “almost normal liver morphology, little hepatic ballooning and fibrosis as well as lipid deposits” and the “fast blood glucose (FIG. 2R)” value ([1]; HFD-fed mice) was “decreased”. For the same compound, the “glucose tolerance, OGTT (FIG. 2P)” value ([1]; HFD-fed mice) was “improved”, the “insulin sensitivity, ITT (FIG. 2O)” value ([1]; HFD-fed mice) was “improved” and the “non-fast blood glucose (FIG. 2Q)” value ([1]; HFD-fed mice) was “decreased”. For the same compound, the “BAT size and weight (FIG. 5I-5K)” value [2, 4] was “reduction”, the “NAS (FIG. 5G)” value [2, 4] was “significantly decreased” and the “gFAT size and weight (FIG. 5I-5K)” value [2, 4] was “reduction”. The “hepatic fibrosis (FIG. 5G)” value [2, 4] was “significantly decreased”, the “hepatomegaly induced by NASH diet” value [2, 4] was “markedly attenuated” and the “iFAT size and weight (FIG. 5I-5K)” value [2, 4] was “reduction”. The “liver fat (FIG. 5G)” value [2, 4] was “significantly decreased”, the “liver size (FIG. 5E-5F)” value [2, 4] was “dramatically decreased” and the “liver surface (FIG. 5E)” value [2, 4] was “more smooth”. For the same compound, the “liver weight (FIG. 5F)” value [2, 4] was “dramatically decreased”, the “nonfasting glucose (FIG. 5H)” value [2, 4] was “most potent glucose-lowering effect” and the “body weight at endpoint (FIG. 5C-5D)” value ([2]; 100 ug/10 g per day oral, 6 weeks, vs vehicle) was “reduced”. For the same compound, the “body weight curve (FIG. 5B)” value ([2]; 12 weeks NASH diet, then 100 ug/10 g per day oral for 6 weeks on NASH diet, vs H2O) was “decreased”, the “body fat (FIG. 3H-3K)” value [3, 5] was “radically reduced” and the “body weight at end-point (FIG. 3B)” value [3, 5] was “decreased”. For the same compound, the “liver weight (FIG. 3E)” value [3, 5] was “decreased”, the “fibrosis score (FIG. 3F)” value ([3]; H&E, Sirius Red, Oil Red O staining) was “alleviated” and the “BAT (FIG. 3H-3K)” value ([3]; treat vs non-treat mice) was “no changes”. The “GFAT (FIG. 3H-3K)” value ([3]; treat vs non-treat mice) was “no changes”, the “hyperlipidemia, serum (FIG. 3G)” value ([3]; two months treatment) was “decreased” and the “liver coloration (FIG. 3D)” value ([3]; yellowish coloration in vehicle mice) was “not any yellow color”.
